Results published in ChEMBL document CHEMBL1149728, “11-oxoaerothionin: a cytotoxic antitumor bromotyrosine-derived alkaloid from the Caribbean marine sponge Aplysina lacunosa” (J Nat Prod, 1992).
≈ marks a conversion by molar mass, not a printed value.

What was measured:
[1] = test system: MCF7; assay: Cytotoxicity against human MCF7 cells; type: functional, cell-based
[2] = test system: SK-MEL-5; assay: Cytotoxicity against human SK-MEL-5 cells; type: functional, cell-based
[3] = test system: HCT-116; assay: Cytotoxicity against human HCT116 cells; type: functional, cell-based
[4] = test system: CCRF-CEM; assay: Cytotoxicity against human CCRF-CEM cells; type: functional, cell-based
[5] = test system: Escherichia coli; assay: Antimicrobial activity against Escherichia coli; type: functional
[6] = test system: Staphylococcus aureus; assay: Antimicrobial activity against Staphylococcus aureus; type: functional
[7] = test system: Pseudomonas aeruginosa; assay: Antimicrobial activity against Pseudomonas aeruginosa; type: functional

MIC [5]: 10 µg/mL (≈ 12 µM)
MIC [6]: 30 µg/mL (≈ 36.1 µM)
MIC [7]: 30 µg/mL (≈ 36.1 µM)
SMILES: COC1=C(Br)[C@@H](O)[C@]2(C=C1Br)CC(C(=O)NCCC(=O)CNC(=O)C1=NO[C@]3(C=C(Br)C(OC)=C(Br)[C@@H]3O)C1)=NO2
IC50 [1]: 20 µg/mL (≈ 24 µM)
IC50 [2]: 10 µg/mL (≈ 12 µM)
IC50 [3]: 10 µg/mL (≈ 12 µM)
IC50 [4]: 3.5 µg/mL (≈ 4.21 µM)
